{
  "source": "paper PMC4023695",
  "about": "(ACS medicinal chemistry letters, 2014)",
  "key": {"MOR [1]": {"system": "MOR", "details": "read-out: GPI IC50; DALDA literature characterisation, no reference given; cited from earlier work"}, "MOR [2]": {"molecular_target": "MOR (Rattus norvegicus, UniProt P33535)", "sequence (P33535 whole entry)": "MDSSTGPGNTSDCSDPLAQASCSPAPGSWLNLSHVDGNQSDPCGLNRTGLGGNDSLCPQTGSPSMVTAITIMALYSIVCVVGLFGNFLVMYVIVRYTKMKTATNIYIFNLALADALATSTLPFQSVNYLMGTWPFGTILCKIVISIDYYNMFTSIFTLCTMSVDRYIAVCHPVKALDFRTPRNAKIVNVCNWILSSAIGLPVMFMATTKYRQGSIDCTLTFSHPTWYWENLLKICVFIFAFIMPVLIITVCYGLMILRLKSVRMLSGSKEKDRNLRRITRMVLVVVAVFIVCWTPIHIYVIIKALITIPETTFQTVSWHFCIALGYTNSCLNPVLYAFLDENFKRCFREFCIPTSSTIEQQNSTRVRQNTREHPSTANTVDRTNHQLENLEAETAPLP", "assay_type": "binding"}, "[3]": {"test": "Metabolic plasma stability assay", "assay_type": "in vitro ADME", "details": "up to 20 h"}, "Caco-2 cell monolayers": {"system": "Caco-2 cell monolayers", "test": "Caco-2 cell monolayer translocation", "assay_type": "in vitro ADME"}, "C57Bl6 mice": {"system": "C57Bl6 mice", "test": "Mouse tail-flick assay", "assay_type": "in vivo", "details": "intravenous, nonlinear regression of log dose–response curve"}, "[4]": {"details": "cited from earlier work"}, "[5]": {"details": "cis-concentration 13 nM, absence of unlabelled compound, means ± SE, n = 3"}},
  "note": "Marks after values point to notes of the source that are not given here.",
  "data": [
    {"compound": "Tyr-D-Arg-Phe-Lys-NH2 [DALDA]", "values": [
      {"measurement": "IC50", "setting": "MOR [1]", "value": 254, "unit": "nM"}
    ]},
    {"compound": "N=C(N)NCCC[C@@H](NC(=O)[C@@H](N)Cc1ccc(OCc2cn([C@@H]3O[C@H](CO)[C@H](O)[C@H](O)[C@H]3O)nn2)cc1)C(=O)N[C@@H](Cc1ccccc1)C(=O)N[C@@H](CCCCN)C(N)=O", "note": "[compound 3]", "values": [
      {"measurement": "loss in binding (MOR) relative to DALDA", "setting": "MOR [2]; compound 3 vs DALDA", "value": 22, "unit": "fold"},
      {"measurement": "Ki ratio μ/δ", "setting": "MOR [2]; μ/δ receptor binding selectivity ratio", "value": ">130"}
    ]},
    {"compound": "Cc1cc(O)cc(C)c1C[C@H](N)C(=O)N[C@H](CCCNC(=N)N)C(=O)N[C@@H](Cc1ccccc1)C(=O)N[C@@H](Cc1cn([C@@H]2O[C@H](CO)[C@@H](O)[C@H](O)[C@H]2O)nn1)C(N)=O", "note": "[compound 5]", "values": [
      {"measurement": "degradation in human plasma", "setting": "[3]", "value": "no degradation products could be observed"}
    ]},
    {"compound": "Cc1cc(O)cc(C)c1C[C@H](N)C(=O)N[C@H](CCCNC(=N)N)C(=O)N[C@@H](Cc1ccccc1)C(=O)N[C@@H](Cc1cn([C@@H]2O[C@H](CO)[C@H](O)[C@H](O)[C@H]2O)nn1)C(N)=O", "note": "[compound 4]", "values": [
      {"measurement": "A–B and B–A permeabilities compared to mannitol", "setting": "Caco-2 cell monolayers; 21 day old Caco-2 monolayers, 13 nM", "value": "slightly higher than the permeability of the passive flux marker mannitol"},
      {"measurement": "Flux A–B (lumen–blood)", "setting": "Caco-2 cell monolayers; [5]", "value": "2.59 ± 0.15", "unit": "nmol·cm^−2·min^−1 × 10^−7"},
      {"measurement": "Flux B–A (blood–lumen)", "setting": "Caco-2 cell monolayers; [5]", "value": "2.96 ± 0.13", "unit": "nmol·cm^−2·min^−1 × 10^−7"},
      {"measurement": "degradation in human plasma", "setting": "[3]", "value": "no degradation products could be observed"},
      {"measurement": "ED50 tail-flick test", "setting": "C57Bl6 mice", "value": "0.27* mg/kg"}
    ]},
    {"compound": "OC[C@@H](O)[C@@H](O)[C@H](O)[C@H](O)CO", "note": "[mannitol]", "values": [
      {"measurement": "oral bioavailability", "setting": "[4]", "value": "~ 20%"}
    ]}
  ]
}
